In one assay the test system is G. vaginalis. In words: Minimum inhibitory concentration (MIC) against G. vaginalis, two-fold dilutions in 96-well plates. Format: cell-based. As to conditions: Gardnerella vaginalis; after 48 hours; tested 0.0625 to 16 mg/mL; FIG. 1A; read-out: concentration showing significant inhibition of growth of G. vaginalis (MIC). The method, then:
Formulations of creatinine hydrochloride were prepared in different concentrations to evaluate the effect on the inhibition of growth of G. vaginalis. Creatinine hydrochloride was used in varying concentrations ranging from 0.0625 mg/mL to 16 mg/mL. The minimum inhibitory concentration (MIC) for each solution was determined against G. vaginalis using two-fold dilutions and flat-bottom 96-well plates.

For the next assay, the system named is M. mulieris. Description: Minimum inhibitory concentration (MIC) against M. mulieris, two-fold dilutions in 96-well plates. In kind it is cell-based, Mobiluncus mulieris. The conditions noted are these: FIG. 2A. The method, then:
The minimum inhibitory concentration (MIC) for each solution was determined against M. mulieris using two-fold dilutions and flat-bottom 96-well plates. […] Methods for Antimicrobial Susceptibility Testing of Anaerobic Bacteria; Approved Standard—6th Edition).

The source of these data is patent US12109195B2, “Compositions and methods for treatment of vaginal infections” (priority 2020, dated 2024).

Structures can show the parent of a compound that is named as a salt.

As for `CN1CC(=O)NC1=N` [creatinine hydrochloride], the MIC is 4000 µg/mL in the assay with G. vaginalis and 4000 µg/mL with M. mulieris (Mobiluncus mulieris, after 48 hours, tested 0.0625 to 16 mg/mL, read-out: concentration that inhibited growth of M. mulieris (MIC)). Further, the “concentration that still inhibited growth of M. mulieris” value in the assay with M. mulieris (after 72 hours) was found to be 8 mg/mL.
